Source: PubChem BioAssay AID743153 (The Scripps Research Institute Molecular Screening Center, 2013)
Calls of active or inactive are those of the source. The rule behind the calls is not given here.

Target: methionyl-tRNA synthetase (Trypanosoma brucei brucei)
Experiment: T. brucei MetRS inhibitors, late-stage follow-up, biochemical, luminescence, dose response, round 1 (AID 743153)
Conditions: recombinant T. brucei MetRS, luminescence (ATP depletion)

Row | SMILES | IC50
1 | COc1ccc(CCN(C(=S)Nc2ccccc2)C2CC(=O)N(c3ccc(Cl)cc3)C2=O)cc1 (stereo unspecified) | 0.321 µM
2 | O=C(NCCc1nc2ccccc2[nH]1)c1ccc(Cl)cc1 | 4.86 µM
3 | COc1ccc(CCN(C(=O)c2cccc(F)c2)C2CC(=O)N(c3ccc(Br)cc3)C2=O)cc1 (stereo unspecified) | > 119 µM (inactive)
4 | COCCc1nc2ccc(C(=O)NCCc3nc4ccc(OC)cc4[nH]3)cc2o1 | > 39.5 µM (inactive)
5 | CNC(=S)N(CCc1ccccc1)C1CC(=O)N(c2ccc(Br)cc2)C1=O (stereo unspecified) | 0.192 µM
6 | CCc1ccc2[nH]c3nc(SCC(=O)NCc4cccc(OC)c4)nnc3c2c1 | > 39.5 µM (inactive)
7 | Cc1ccc(C(=O)NCCc2nc3ccccc3[nH]2)cc1[N+](=O)[O-] | 2.37 µM
8 | O=C(CSC1CC(=O)N(c2cccc(Cl)c2)C1=O)Nc1ccc(Br)cc1 (stereo unspecified) | inactive
9 | COc1ccc(NC(=O)CSc2nnc3c4cc(C)ccc4n(C)c3n2)cc1 | > 119 µM (inactive)
10 | CC(C)c1nc2ccc(C(=O)N(C)CCc3nc4ccc(F)cc4[nH]3)cc2o1 | > 119 µM (inactive)
11 | Cc1cc2cc(C(=O)N3CCCC(c4nc5ccccc5[nH]4)C3)ccc2o1 (stereo unspecified) | > 39.5 µM (inactive)
12 | Cc1cccc2[nH]c(C3CCCN(C(=O)c4cccc5cccnc45)C3)nc12 (stereo unspecified) | > 39.5 µM (inactive)
13 | O=C(Nc1ccc(F)c(Cl)c1)C1CC(=O)n2c(nc3ccccc32)N1 (stereo unspecified) | 1.18 µM
14 | Cc1ccc2[nH]c3nc(SCC(=O)Nc4ccc(C(F)(F)F)cc4)nnc3c2c1 | > 119 µM (inactive)
15 | O=C(NCCc1nc2ccccc2[nH]1)c1ccc(Cl)cc1Cl | 0.905 µM
16 | Cc1cccc2[nH]c(CCN(C)C(=O)c3cccc(C4CCNC4)c3)nc12 (stereo unspecified) | > 119 µM (inactive)
17 | O=C1CC(NCCc2ccccc2)C(=O)N1c1ccc(Br)cc1 (stereo unspecified) | > 119 µM (inactive)
18 | CCN(CCc1nc2ccc(C)cc2[nH]1)C(=O)c1ccc2ncccc2c1 | > 119 µM (inactive)
19 | CCc1ccc2c(c1)c1nnc(SCC(=O)Nc3ccc4c(c3)OCO4)nc1n2C | > 119 µM (inactive)
20 | Cc1ccc(C(=O)NCCc2nc3ccccc3[nH]2)cc1C | > 13.2 µM (inactive)
21 | O=C(CSc1nnc2c(n1)[nH]c1ccc(Br)cc12)NCc1ccccc1 | 0.626 µM
22 | Cc1ccc(CNC(=O)CSc2nnc3c(n2)[nH]c2ccc(C)cc23)cc1 | inactive
23 | O=C(NCCc1nc2ccccc2[nH]1)c1c(F)cccc1F | > 119 µM (inactive)
24 | O=C(NCCc1nc2ccccc2[nH]1)c1ccc(Cl)c(Cl)c1 | 0.609 µM

Other lines, results leading:

Row | IC50 | SMILES
25 | > 39.5 µM (inactive) | Cc1cccc(C(=O)NCCc2nc3ccccc3n2CCOc2ccccc2)c1
26 | > 119 µM (inactive) | O=C(Cn1cc(C(=O)C(=O)N2CCCC2)c2ccccc21)Nc1ccccc1
27 | > 119 µM (inactive) | COc1ccc(NC(=O)C2CC(=O)n3c(nc4ccccc43)N2)cc1 (stereo unspecified)
28 | > 39.5 µM (inactive) | CC(=O)N(CCc1ccccc1)C1CC(=O)N(c2ccc(Cl)cc2)C1=O (stereo unspecified)
29 | inactive | COc1ccccc1NC(=O)CSc1nnc2c(n1)[nH]c1ccc(C)cc12
30 | > 119 µM (inactive) | CC1Cc2ccccc2N1C(=O)Cn1cc(C(=O)C(=O)N2CCOCC2)c2ccccc21 (stereo unspecified)
31 | > 39.5 µM (inactive) | CCN(CC)C(=O)C(=O)c1cn(CC(=O)N(CC)c2ccccc2)c2ccccc12
32 | > 119 µM (inactive) | CCN(CC)C(=O)C(=O)c1cn(CC(=O)N2CCCc3ccccc32)c2ccccc12
33 | > 119 µM (inactive) | CCN(C(=O)Cn1cc(C(=O)C(=O)N2CCOCC2)c2ccccc21)c1ccccc1
34 | > 119 µM (inactive) | O=C(Cn1cc(C(=O)C(=O)N2CCOCC2)c2ccccc21)NCC1CCCO1 (stereo unspecified)
35 | > 119 µM (inactive) | CCN(CC)C(=O)C(=O)c1cn(CC(=O)Nc2ccccc2OC)c2ccccc12
36 | > 39.5 µM (inactive) | Cn1c(CCNC(=O)c2ccc(Cl)cc2)nc2ccccc21
37 | 6.2 µM | CC(=O)c1cn(CC(=O)Nc2cccc(C(F)(F)F)c2)c2ccccc12
38 | 1.84 µM | CCN(CC)C(=O)C(=O)c1cn(CC(=O)Nc2cccc(OC)c2)c2ccccc12
39 | > 39.5 µM (inactive) | CCC(=O)c1cn(CC(=O)Nc2cccc(C(F)(F)F)c2)c2ccccc12
40 | inactive | COc1cccc(NC(=O)C2CC(=O)n3c(nc4ccccc43)N2)c1 (stereo unspecified)
41 | 6.8 µM | O=C(Cn1cc(C(=O)c2ccccc2)c2ccccc21)Nc1cccc(C(F)(F)F)c1
42 | > 39.5 µM (inactive) | Cc1cccc(NC(=O)C2CC(=O)n3c(nc4ccccc43)N2)c1 (stereo unspecified)
43 | > 39.5 µM (inactive) | CC(=O)N(CCc1ccccc1)C1CC(=O)N(c2ccc(Br)cc2)C1=O (stereo unspecified)
44 | > 119 µM (inactive) | O=C(Cn1cc(C(=O)C(=O)N2CCOCC2)c2ccccc21)NCc1ccccc1
45 | 0.11 µM | CCN(CC)C(=O)C(=O)c1cn(CC(=O)Nc2cccc(C(F)(F)F)c2)c2ccccc12
46 | > 119 µM (inactive) | COc1ccccc1NC(=O)Cn1cc(C(=O)C(=O)N2CCOCC2)c2ccccc21
47 | > 39.5 µM (inactive) | O=C(Cn1cc(C(=O)COc2ccccc2)c2ccccc21)Nc1cccc(C(F)(F)F)c1
48 | 1.39 µM | O=C(Cn1cc(C(=O)c2ccco2)c2ccccc21)Nc1cccc(C(F)(F)F)c1
49 | > 39.5 µM (inactive) | CCCCn1c(CCNC(=O)c2ccc(F)cc2)nc2ccccc21
50 | > 13.2 µM (inactive) | O=C(C(=O)N1CCOCC1)c1cn(CC(=O)N2CCCc3ccccc32)c2ccccc12
51 | inactive | O=C(Cn1cc(C(=O)C2CC2)c2ccccc21)Nc1cccc(C(F)(F)F)c1
